A short description of the data set: 15a plasma levels by LC-MS after a single intraperitoneal dose. The format is in vivo. To be noted: apoE−/−, mouse. Here is the method:
To measure plasma concentrations of 15a over time, Western type diet fed mice were injected with 5 mg/kg 15a, after which blood samples were taken at fixed time points (1, 2, 6 and 24 hours after injection). Blood samples were processed as described below under “Measurement of 15a plasma levels”. The final dose of 5 mg/kg/day was based on a pilot study in which two different doses (1.5 and 5 mg/kg/day) were tested using leucocyte migration towards the peritoneal cavity as a read-out. […] In addition, the dose of 5 mg/kg was also based on a previous study with TAK-779[38], in which a dose of 5 mg/kg was used.
Blood plasma from mice was analyzed by LC-MS to determine 15a plasma levels. 20 μL of internal standard (compound 15b, a diastereomer of 15a[24]) and 20 μL of solvent C (20% (v/v) Acetonitrile and 0.1% (v/v) TFA in LC-MS water) were first mixed with 20 µL of plasma. A calibration curve from 2 to 200 ng/ml of 15a was prepared using solvent C. Calibration samples were prepared as normal samples using blanc plasma and calibration solution instead of solvent C. Aliquots of 40 µL of 1% TFA were added to the samples and mixed well. After addition of 900 µL of ethyl acetate, mixing was performed for 5 minutes at a titramax plate shaker (Heidolph, Swabach, Germany). Samples were then centrifuged at 15,000 × g during 10 minutes and 800 µL of the supernatant was evaporated in a vacuum centrifuge (Labconco, Kansas City, Missouri). The sample was reconstituted by mixing with 10 µL of acetonitrile, followed by addition of 40 µL solvent C. After a second centrifugation at 15,000 × g for 10 minutes, 35 µL of supernatant were transferred to LC vials and inserted into the LC-MS system consisting of a Nexera X2 UHPLC system with two UHPLC pumps (Shimadzu, ’s Hertogenbosch, The Netherlands) connected to a TSQ Quantum Ultra (Thermo Fisher Scientific, Breda, The Netherlands). Separation of 15a was accomplished in a Gemini 3 µm C18 reversed phase HPLC column (50 × 4.6 mm) (Phenomenex, Amstelveen, The Netherlands) using an injection volume of 10 µL and a flow rate of 0.6 ml/min at 40 °C. After elution of 15a with a 9:11 (v/v) ratio of acetonitrile in water with 0.1% TFA, the column was flushed with a gradient up to 90% acetonitrile with 0.1% TFA. The column was re-equilibrated with a 9:11 (v/v) ratio of acetonitrile in water with 0.1% TFA before the next injection. […] The collision energy used was 26 V at a skimmer offset of 16 V, the scan peak width was 0.5 m/z, while the scan time was 0.3 seconds. Sheath gas and auxiliary gas pressure (Nitrogen) were set to 60 and 5 respectively (arbitrary units), and the collision gas Argon was set at 1.0 atm.
To determine the maximal value of k off that would prolong the receptor occupancy even further, we used equation (2)[28], in which BF represents the percentage of target occupancy divided by 100 and t 1/2el represents the plasma elimination half-life (0.693/k el). In this case we set BF to 0.90, as 90% represents the minimum value of target occupancy to achieve efficacy. To obtain the elimination rate constant of compound 15a, a linear regression analysis of the natural logarithm of the concentrations versus time was performed, and the slope coefficient was used as the elimination rate constant k el.2 koff<0.693⋅(1−BF)/t1/2el

In general, half-life refers to how long it takes for the measured level to halve. With `CC(C)[C@]1(C(=O)N2CCc3ccc(C(F)(F)F)cc3C2)CC[C@@H](N[C@@H]2CCc3cc(Br)ccc32)C1` [15a, ((1S,3R)-3-(((R)-5-bromo-2,3-dihydro-1H-inden-1-yl)amino)-1-isopropylcyclopentyl)(7-(trifluoromethyl)-3,4-dihydroisoquinolin-2(1H)-yl)methanone], for the setting “intraperitoneal, 5 mg/kg, slope of the linear regression of the pharmacokinetic data, read-out: k el (elimination rate constant) (converted)”, the k el was 1.8e-05 s⁻¹. Besides, the concentration at 1 h (ip, single intraperitoneal dose of 5 mg/kg, mice, range of individual mice, read-out: plasma levels 1 h after administration) was in the range of 12 to 1460 ng/mL. Moreover, the concentration at 2 h (ip, single intraperitoneal dose of 5 mg/kg, mice, range of individual mice, read-out: plasma levels 2 h after dosing) is 613 to 1050 ng/mL. Moreover, the concentration at 6 h (ip, single intraperitoneal dose of 5 mg/kg, mice, range of individual mice, read-out: plasma levels 6 h after administration) was in the range of 182 to 1020 ng/mL. In addition, where the note is “ip, single intraperitoneal dose of 5 mg/kg, mice, range of individual mice, read-out: plasma levels 24 h after administration”, the concentration at 24 h was 32 to 331 ng/mL. Moreover, the half-life (ip, single intraperitoneal dose of 5 mg/kg, mice, read-out: elimination half-life (converted)) is 10.7 h.

The record behind these values is PMC5427923, “A novel CCR2 antagonist inhibits atherogenesis in apoE deficient mice by achieving high receptor occupancy” (Scientific Reports, 2017).
